Source: ChEMBL document CHEMBL4334456, “Moscatilin Ameliorates Tau Phosphorylation and Cognitive Deficits in Alzheimer's Disease Models” (J Nat Prod, 2019)
The source made the active and inactive calls.

What was measured:
[1] = Toxicity in ICR mouse assessed as effect on body weight at 25 to 100 mg/kg, ip for 2 weeks; type: organism-based; conditions: in vivo, 336 h
[2] = test system: SH-SY5Y; assay: Antioxidant activity in OA-induced human SH-SY5Y cells assessed as increase in MDA level at 0.1 to 1 uM pretreated for 12 hrs followed by OA addition and measured after 12 hrs; type: functional, cell-based
[3] = molecular target: c-Jun N-terminal kinase, JNK (Homo sapiens) (UniProt P45983+P53779+P45984); assay: Inhibition of JNK phosphorylation in OA-induced human SH-SY5Y cells pretreated for 24 hrs followed by OA addition and measured after 6 hrs by Western blot analysis; type: cell-based
[4] = test system: SH-SY5Y; assay: Inhibition of ERK phosphorylation in OA-induced human SH-SY5Y cells pretreated for 24 hrs followed by OA addition and measured after 6 hrs by Western blot analysis; type: cell-based
[5] = test system: Mus musculus; assay: Anti-alzhemeric activity in scopolamine-induced ICR mouse assessed as inhibition of tau phosphorylation at Ser262 residues in brain at 25 to 100 mg/kg, ip for 2 weeks followed by scopolamine treatment by Western blot analysis; type: functional, organism-based
[6] = molecular target: MAP kinase p38 (Homo sapiens) (UniProt O15264+Q15759+Q16539+P53778); assay: Inhibition of p38 phosphorylation in OA-induced human SH-SY5Y cells pretreated for 24 hrs followed by OA addition and measured after 6 hrs by Western blot analysis; type: cell-based
[7] = Toxicity in ICR mouse assessed as effect on body weight at 1 mg/kg, ip for 2 weeks; type: organism-based; conditions: in vivo, 336 h
[8] = molecular target: Glycogen synthase kinase-3 beta (Homo sapiens) (UniProt P49841); assay: Inhibition of GSK-3beta in human SH-SY5Y cells harboring with pCAX/FLAG-tagged APP and pRK5/EGFP-tagged Tau P301L mutant assessed as reduction in tau phosphorylation at S404 residues after 12 to 24 hrs by Western blot analysis; type: cell-based
[9] = test system: N2a; assay: Cytotoxicity against mouse Neuro2a cells assessed as reduction in cell viability after 12 hrs by MTT assay; type: cell-based
[10] = test system: SH-SY5Y; assay: Inhibition of tau aggregation in OA-induced human SH-SY5Y cells at 0.1 to 5 uM pretreated for 24 hrs followed by OA addition and measured after 6 hrs by Western blot analysis; type: functional, cell-based
[11] = molecular target: Glycogen synthase kinase-3 beta (Homo sapiens) (UniProt P49841); assay: Inhibition of GSK-3beta in human SH-SY5Y cells assessed as reduction in GSK-3beta phosphorylation at Tyr216 residues at 0.1 to 5 uM pretreated for 24 hrs followed by OA addition and measured after 6 hrs by Western blot analysis; type: cell-based
[12] = test system: SH-SY5Y; assay: Effect on total tau protein level in human SH-SY5Y cells harboring with pCAX/FLAG-tagged APP and pRK5/EGFP-tagged Tau P301L mutant at 0.1 to 10 uM after 12 to 24 hrs by Western blot analysis; type: ADME, cell-based
[13] = test system: N2a; assay: Effect on total tau protein level in mouse Neuro2a cells harboring with pCAX/FLAG-tagged APP and pRK5/EGFP-tagged Tau P301L mutant at 0.1 to 10 uM after 12 to 24 hrs by Western blot analysis; type: ADME, cell-based
[14] = molecular target: Glycogen synthase kinase-3 beta (Mus musculus) (UniProt Q9WV60); assay: Inhibition of GSK-3beta in mouse Neuro2a cells harboring with pCAX/FLAG-tagged APP and pRK5/EGFP-tagged Tau P301L mutant at 0.1 to 10 uM assessed as reduction in GSK-3beta phosphorylation at Tyr216 residues after 24 hrs by Western blot analysis; type: cell-based
[15] = molecular target: Glycogen synthase kinase-3 beta (Homo sapiens) (UniProt P49841); assay: Inhibition of GSK-3beta in human SH-SY5Y cells assessed as increase in GSK-3beta phosphorylation at Ser9 residues at 0.1 to 5 uM pretreated for 24 hrs followed by OA addition and measured after 6 hrs by Western blot analysis; type: cell-based
[16] = test system: N2a; assay: Effect on total tau protein level in mouse Neuro2a cells at 0.1 to 5 uM pretreated for 12 to 24 hrs followed by OA addition and measured after 6 hrs by Western blot analysis; type: cell-based
[17] = test system: SH-SY5Y; assay: Antioxidant activity in OA-induced human SH-SY5Y cells assessed as decrease in GSH level at 0.1 to 1 uM pretreated for 12 hrs followed by OA addition and measured after 12 hrs; type: functional, cell-based
[18] = test system: Mus musculus; assay: Anti-alzhemeric activity in scopolamine-induced ICR mouse assessed as inhibition of tau phosphorylation at S202/T205 residues in brain at 25 to 100 mg/kg, ip for 2 weeks followed by scopolamine treatment by Western blot analysis; type: functional, organism-based
[19] = test system: Mus musculus; assay: Anti-alzhemeric activity in scopolamine-induced ICR mouse assessed as inhibition of tau phosphorylation at Ser396 residues in brain at 25 to 100 mg/kg, ip for 2 weeks followed by scopolamine treatment by Western blot analysis; type: functional, organism-based
[20] = test system: Mus musculus; assay: Anti-alzhemeric activity in scopolamine-induced ICR mouse assessed as increase in swimming speed at 25 to 100 mg/kg, ip for 2 weeks followed by scopolamine treatment and measured after 90 mins by Morris water maze test; type: functional, organism-based
[21] = molecular target: Glycogen synthase kinase-3 beta (Homo sapiens) (UniProt P49841); assay: Inhibition of GSK-3beta in human SH-SY5Y cells harboring with pCAX/FLAG-tagged APP and pRK5/EGFP-tagged Tau P301L mutant at 0.1 to 10 uM assessed as increase in GSK-3beta phosphorylation at Ser9 residues after 24 hrs by Western blot analysis; type: cell-based
[22] = molecular target: Glycogen synthase kinase-3 beta (Homo sapiens) (UniProt P49841); assay: Inhibition of GSK3beta in human SH-SY5Y cells assessed as reduction in tau phosphorylation at S202/T205 residues at 0.1 to 5 uM pretreated for 12 to 24 hrs followed by OA addition and measured after 6 hrs by Western blot analysis; type: cell-based
[23] = test system: SH-SY5Y; assay: Effect on cell cycle arrest in OA-induced human SH-SY5Y cells assessed as accumulation at sub-G1 phase at 0.1 uM pretreated for 6 hrs followed by OA addition and measured after 16 hrs […] (reference value: 32.28%); type: functional
[24] = molecular target: Glycogen synthase kinase-3 beta (Homo sapiens) (UniProt P49841); assay: Inhibition of GSK-3beta in human SH-SY5Y cells harboring with pCAX/FLAG-tagged APP and pRK5/EGFP-tagged Tau P301L mutant assessed as reduction in tau phosphorylation at S396 residues after 12 to 24 hrs by Western blot analysis; type: cell-based
[25] = test system: Mus musculus; assay: Anti-alzhemeric activity in scopolamine-induced ICR mouse assessed as reduction in tau phosphorylation at S202/T205 residues in hippocampal CA1 region at 25 to 100 mg/kg, ip for 2 weeks followed by scopolamine treatment by immunohistochemistry-based analysis; type: functional, organism-based
[26] = test system: Mus musculus; assay: Anti-alzhemeric activity in scopolamine-induced ICR mouse assessed as increase in GSK-3beta phosphorylation Ser9 residues in brain at 25 to 100 mg/kg, ip for 2 weeks followed by scopolamine treatment by Western blot analysis; type: functional, organism-based
[27] = test system: SH-SY5Y; assay: Cytotoxicity against human SH-SY5Y cells assessed as reduction in cell viability after 12 hrs by MTT assay; type: cell-based
[28] = molecular target: Glycogen synthase kinase-3 beta (Homo sapiens) (UniProt P49841); assay: Inhibition of GSK3beta in human SH-SY5Y cells assessed as reduction in tau phosphorylation at S262 residues at 0.1 to 5 uM pretreated for 12 to 24 hrs followed by OA addition and measured after 6 hrs by Western blot analysis; type: cell-based
[29] = test system: N2a; assay: Cytotoxicity against mouse Neuro2a cells assessed as reduction in cell viability after 24 hrs by MTT assay; type: cell-based
[30] = test system: Mus musculus; assay: Anti-alzhemeric activity in scopolamine-induced ICR mouse assessed as increase in time spent in the target quadrant at 25 to 100 mg/kg, ip for 2 weeks followed by scopolamine treatment and measured after 90 mins by Morris water maze test; type: functional, organism-based
[31] = molecular target: Glycogen synthase kinase-3 beta (Mus musculus) (UniProt Q9WV60); assay: Inhibition of GSK-3beta in mouse Neuro2a cells harboring with pCAX/FLAG-tagged APP and pRK5/EGFP-tagged Tau P301L mutant at 0.1 to 10 uM assessed as increase in GSK-3beta phosphorylation at Ser9 residues after 24 hrs by Western blot analysis; type: cell-based
[32] = molecular target: Glycogen synthase kinase-3 beta (Homo sapiens) (UniProt P49841); assay: Inhibition of GSK-3beta in human SH-SY5Y cells harboring with pCAX/FLAG-tagged APP and pRK5/EGFP-tagged Tau P301L mutant at 0.1 to 10 uM assessed as reduction in GSK-3beta phosphorylation at Tyr216 residues after 24 hrs by Western blot analysis; type: cell-based
[33] = test system: Mus musculus; assay: Anti-alzhemeric activity in scopolamine-induced ICR mouse assessed as increase in swimming distance at 25 to 100 mg/kg, ip for 2 weeks followed by scopolamine treatment and measured after 90 mins by Morris water maze test; type: functional, organism-based
[34] = molecular target: Glycogen synthase kinase-3 beta (Mus musculus) (UniProt Q9WV60); assay: Inhibition of GSK-3beta in mouse Neuro2a cells harboring with pCAX/FLAG-tagged APP and pRK5/EGFP-tagged Tau P301L mutant assessed as reduction in tau phosphorylation at S404 residues after 12 to 24 hrs by Western blot analysis; type: cell-based
[35] = molecular target: Glycogen synthase kinase-3 beta (Mus musculus) (UniProt Q9WV60); assay: Inhibition of GSK3beta in mouse Neuro2a cells assessed as reduction in tau phosphorylation at S262 residues at 0.1 to 5 uM pretreated for 12 to 24 hrs followed by OA addition and measured after 6 hrs by Western blot analysis; type: cell-based
[36] = test system: Mus musculus; assay: Reversal of scopolamine-induced spatial memory impairment in ICR mouse assessed as decrease in time spent on […] at 25 to 100 mg/kg, ip for 2 weeks followed by scopolamine treatment and measured after 90 mins by Morris water maze test; type: functional, organism-based
[37] = molecular target: Glycogen synthase kinase-3 beta (Mus musculus) (UniProt Q9WV60); assay: Inhibition of GSK3beta in mouse Neuro2a cells assessed as reduction in tau phosphorylation at S202/T205 residues at 0.1 to 5 uM pretreated for 12 to 24 hrs followed by OA addition and measured after 6 hrs by Western blot analysis; type: cell-based
[38] = test system: Mus musculus; assay: Anti-alzhemeric activity in scopolamine-induced ICR mouse assessed as increase in GSK-3beta phosphorylation Ser9 residues in hippocampal CA1 region at 25 to 100 mg/kg, ip for 2 weeks followed by scopolamine treatment by immunohistochemistry-based analysis; type: functional, organism-based
[39] = test system: SH-SY5Y; assay: Cytotoxicity against human SH-SY5Y cells assessed as reduction in cell viability after 24 hrs by MTT assay; type: cell-based
[40] = molecular target: Glycogen synthase kinase-3 beta (Mus musculus) (UniProt Q9WV60); assay: Inhibition of GSK-3beta in mouse Neuro2a cells harboring with pCAX/FLAG-tagged APP and pRK5/EGFP-tagged Tau P301L mutant assessed as reduction in tau phosphorylation at S396 residues after 12 to 24 hrs by Western blot analysis; type: cell-based
[41] = test system: SH-SY5Y; assay: Effect on total tau protein level in human SH-SY5Y cells at 0.1 to 5 uM pretreated for 12 to 24 hrs followed by OA addition and measured after 6 hrs by Western blot analysis; type: ADME, cell-based

Glycogen synthase kinase-3 beta (Mus musculus), sequence (Q9WV60 whole entry, looked up): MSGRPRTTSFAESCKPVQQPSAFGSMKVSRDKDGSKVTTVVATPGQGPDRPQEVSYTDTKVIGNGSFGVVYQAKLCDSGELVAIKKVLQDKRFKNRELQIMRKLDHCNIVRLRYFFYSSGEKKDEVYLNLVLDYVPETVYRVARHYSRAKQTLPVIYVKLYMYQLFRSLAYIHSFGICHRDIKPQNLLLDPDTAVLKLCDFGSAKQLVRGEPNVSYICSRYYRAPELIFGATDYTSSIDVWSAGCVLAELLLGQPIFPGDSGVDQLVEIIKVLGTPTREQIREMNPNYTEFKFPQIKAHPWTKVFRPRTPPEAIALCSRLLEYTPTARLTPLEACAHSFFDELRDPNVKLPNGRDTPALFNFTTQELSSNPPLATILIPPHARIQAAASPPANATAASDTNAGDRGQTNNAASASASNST
Glycogen synthase kinase-3 beta (Homo sapiens), sequence (P49841 whole entry, looked up): as the sequence (Q9WV60 whole entry, looked up) above, with P390T, A392T, T400A, A402T counted along it

COc1cc(CCc2cc(OC)c(O)c(OC)c2)ccc1O [MOSCATILIN]
inactive: Activity [20]
> 20 µM: IC50 [9] | IC50 [27] | IC50 [29] | IC50 [39]
active: Activity [2] | inhibition [3] Dose-dependent effect | inhibition [4] Dose-dependent effect | Activity [5] | inhibition [6] Dose-dependent effect | inhibition [8] Dose-dependent effect | inhibition [10] | inhibition [11] | inhibition [14] | inhibition [15] | Activity [17] | Activity [18] | Activity [19] | inhibition [21] | inhibition [22] | inhibition [24] Dose-dependent effect | Activity [25] | Activity [26] | inhibition [28] | Activity [30] | inhibition [31] | inhibition [32] | Activity [33] | inhibition [34] Dose-dependent effect | inhibition [35] | Activity [36] | inhibition [37] | Activity [38] | inhibition [40] Dose-dependent effect
Non-Toxic: Activity [1] | Activity [7] | Activity [12] | Activity [13] | Activity [16] | Activity [41]
20.81%: Activity [23]
